Results published in PubChem BioAssay (NCI).
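Values below derive from 48-hour exposures of cells grown in 96-well plates, with endpoints linearly interpolated between the two concentrations bracketing the appropriate inhibition level. GI50 is the concentration that inhibits growth by half. TGI marks complete inhibition of growth.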

What was measured:
Experiment in all cases: NCI anticancer screen, dose series, 48 h
NCI-H460 lung = test system: NCI-H460 lung
SF-268 CNS = test system: SF-268 CNS
PC-3 prostate = test system: PC-3 prostate
SK-MEL-2 melanoma = test system: SK-MEL-2 melanoma
HL-60(TB) leukemia = test system: HL-60(TB) leukemia
OVCAR-5 ovarian = test system: OVCAR-5 ovarian
SW-620 colon = test system: SW-620 colon
UACC-257 melanoma = test system: UACC-257 melanoma
OVCAR-4 ovarian = test system: OVCAR-4 ovarian
NCI/ADR-RES ovarian = test system: NCI/ADR-RES ovarian
A549 NSCLC = test system: A549 NSCLC
LOX IMVI melanoma = test system: LOX IMVI melanoma
SNB-19 CNS = test system: SNB-19 CNS
NCI-H226 lung = test system: NCI-H226 lung
UO-31 renal = test system: UO-31 renal
NCI-H23 lung = test system: NCI-H23 lung
MDA-MB-231 breast = test system: MDA-MB-231 breast
SNB-75 CNS = test system: SNB-75 CNS
A498 renal = test system: A498 renal
MOLT-4 leukemia = test system: MOLT-4 leukemia
SK-MEL-5 melanoma = test system: SK-MEL-5 melanoma
NCI-H522 lung = test system: NCI-H522 lung
HS 578T breast = test system: HS 578T breast
HCC-2998 colon = test system: HCC-2998 colon
HCT-116 colon = test system: HCT-116 colon
CCRF-CEM leukemia = test system: CCRF-CEM leukemia
HT29 colon = test system: HT29 colon
SF-539 CNS = test system: SF-539 CNS

## COc1cccc2cc(N(C)c3ncnc4ccccc34)ccc12
NCI-H460 lung
  TGI: 10800 nM
SF-268 CNS
  GI50: 22.1 nM
  TGI: 14100 nM
PC-3 prostate
  GI50: < 10 nM
  TGI: 15600 nM
SK-MEL-2 melanoma
  GI50: 142 nM
  TGI: 14400 nM
HL-60(TB) leukemia
  GI50: < 10 nM
  TGI: 48.6 nM
OVCAR-5 ovarian
  GI50: 31.9 nM
  TGI: 17400 nM
SW-620 colon
  GI50: < 10 nM
  TGI: 17600 nM
UACC-257 melanoma
  GI50: 283 nM
  TGI: 10600 nM
OVCAR-4 ovarian
  GI50: < 16.1 nM
  TGI: 13500 nM
NCI/ADR-RES ovarian
  GI50: < 10 nM
  TGI: 629 nM
A549 NSCLC
  GI50: < 10 nM
  TGI: 9110 nM
LOX IMVI melanoma
  GI50: < 12.3 nM
  TGI: 13500 nM
SNB-19 CNS
  GI50: < 13.2 nM
  TGI: 18400 nM
NCI-H226 lung
  GI50: < 10 nM
  TGI: 827 nM
UO-31 renal
  GI50: < 28.7 nM
  TGI: 13800 nM
NCI-H23 lung
  GI50: < 15.6 nM
  TGI: 6260 nM
MDA-MB-231 breast
  GI50: 25 nM
  TGI: 13000 nM
SNB-75 CNS
  GI50: < 10.5 nM
  TGI: 13000 nM
A498 renal
  GI50: < 10 nM
  TGI: 11000 nM
MOLT-4 leukemia
  GI50: 23.7 nM
  TGI: 15200 nM
SK-MEL-5 melanoma
  GI50: < 10 nM
  TGI: 37.4 nM
NCI-H522 lung
  GI50: < 10 nM
  TGI: 3120 nM
HS 578T breast
  GI50: < 10 nM
  TGI: 20400 nM
HCC-2998 colon
  GI50: 21.1 nM
  TGI: 5430 nM
HCT-116 colon
  GI50: < 10 nM
  TGI: 521 nM
CCRF-CEM leukemia
  GI50: < 14.7 nM
  TGI: 17800 nM
HT29 colon
  GI50: < 10 nM
  TGI: 11800 nM
SF-539 CNS
  GI50: < 10 nM
